# Measurements taken from paper PMC5321741, “Arylmethylamino steroids as antiparasitic agents” (Nature Communications, 2017).
# Where “and” joins values, the source holds several entries; their conditions need not be identical. Identical values can stand only once. Like-named read-outs stand apart in the source and are kept apart here.
# Legend:
# P. falciparum NF54 = assay: IC50 speed assay; format: cell-based, Plasmodium falciparum; conditions: for IC50: Plasmodium falciparum, mean±s.d., three biological replicates
# Experimental: To assess the rapidity of growth inhibition induced by the steroid compounds, the so-called IC50 speed assay[16] was conducted for compound 1o on P. falciparum NF54 (Fig. 2a,b).
# in vitro = format: cell-based; conditions: Human
# Experimental: Furthermore, cytotoxicity tests were carried out on immortalized human hepatocytes, Fa2N-4 cells (XenoTech, cat.no. IFH15), at the Sanford-Burnham Medical Research Institute. Cells were incubated with a range of concentrations (0.01–50 μM) of compound 1o for 24 h. Cell viability was determined with cellular ATP levels by using the Luminescence ATP Detection Assay System (ATPlite 1 step).
# [1] = tested on: P. berghei GFP ANKA malaria strain; assay: P. berghei mouse model (Peter's test); format: in vivo, Plasmodium berghei in NMRI mice
# Experimental: The animal experiments described here were performed at the Swiss Tropical and Public Health Institute (Swiss TPH, Basel, Switzerland), they were approved by the Swiss Cantonal Authorities (‘Kantonales Veterinäramt Basel Stadt') adhering to local and national regulations of laboratory animal welfare in Switzerland. The best compounds were tested in the murine P. berghei model essentially as described. The infection was initiated at day 0 with the P. berghei GFP ANKA malaria strain (donation from AP Waters and CJ Janse, Leiden University). From donor mice (female NMRI mice, 18–20 grams (about 3 weeks) from Charles River Germany) with ∼30% parasitaemia, heparinized blood was taken and diluted in physiological saline to 10^8 parasitized erythrocytes/ml. An aliquot (0.2 ml) of this suspension was injected intravenously into experimental and control groups of mice (female NMRI mice, 18–20 grams (about 3 weeks) from Charles River Germany). Usually, in untreated control mice parasitaemia rose regularly to ∼30% by day 3 post-infection. Control mice died between days 6 and 7 post infection. In the experiments described here, however, control animals (n=5) were killed on day 4 post infection for ethical reasons.
# The steroid compounds were prepared at an appropriate concentration as a solution/suspension in Tween 80/alcohol (7:3, Tween 80 and absolute ethanol, respectively), followed by a 10x dilution in water. […] The route of administration was i.p., p.o., s.c. in a volume of 10 ml kg^−1.
# The degree of infection (parasitaemia expressed in % of infected erythrocytes) was determined by FACS analysis on day 4 (96 h post infection). The difference of the mean infection rate of the control group (=100%) to the test group was calculated and expressed as a percent reduction. For example, activity determination with a mean of 2% parasitaemia in treated mice and a mean of 40% parasitaemia in the control animals is calculated as follows: (40−2%)/40% × 100=95% activity. The survival time in days was recorded up to 30 days after infection. A compound was considered curative if the animal survived to day 30 after infection with no detectable parasites (confirmed by light microscopy).
# [2] = acute toxicity in vivo model; set-up: species or system mice; conditions: accumulative dose 100 mg kg−1 (5, 15, 30, 50 mg kg−1 at 2 h intervals), p.o. and i.p.
# Experimental: The compound was applied at an accumulative dose of 100 mg kg^−1 (per os (p.o.). as well as intraperitoneally (i.p.)). The first application was 5 mg kg^−1, 2 h later 15 mg kg^−1, 2 h later 30 mg kg^−1 and again 2 h later 50 mg kg^−1. […] Moreover, we performed pharmacokinetics studies in mice, dosing i.v., i.p. and p.o. (Supplementary Table 5). […] In contrast, high exposure and sustained levels of ∼2 μM were obtained after i.p. dosing at 100 mg kg^−1.
# In addition, cytotoxicity tests with compound 1o were carried out on immortalized human hepatocytes, Fa2N-4 cells, resulting in an LC50>50 μM. The best compound 1o has furthermore been tested in an acute toxicity in vivo model at the Swiss Tropical Institute, Basel.
# [3] = 4x 100 mg/kg i.p., recorded up to 30 days
# [4] = 4x 100 mg/kg p.o., recorded up to 30 days
compound,measurement,setting,value
COc1ccc2c(c1)CCC1C2CC[C@@]2(C)C1CC[C@H]2NCc1cc2ccccc2cc1O (stereo partly shown) [1o],"speed of action (IC50 shift across 24, 48, 72 h)",P. falciparum NF54,no significant IC50 shifts
same,IC50,"P. falciparum NF54; NF54, read-out: IC50 24 h, 24 h compound incubation",2.9 ± 0.2 nM
same,IC50,"P. falciparum NF54; NF54, 48 h compound incubation, read-out: IC50 48 h",3.4 ± 0.2 nM
same,IC50,"P. falciparum NF54; NF54, 72 h compound incubation, read-out: IC50 72 h",2.7 ± 0.4 nM
same,CC50 at 24 h,in vitro,> 50000 nM
same,% activity (reduction of parasitaemia),[1]; 1x 100 mg/kg p.o.,98%
same,% of control,[1]; 1x 100 mg/kg p.o.,1.5%
same,"Mouse survival in days, Average",[1]; 1x 100 mg/kg p.o.,13 days
same,"Mouse survival in days, individual mice M1-M3",[1]; 1x 100 mg/kg p.o.,14 days (2×) and 11 days
same,"Parasitized RBC over 100, Average",[1]; 1x 100 mg/kg p.o.,0.47
same,"Parasitized RBC over 100, individual mice M1-M3",[1]; 1x 100 mg/kg p.o.,0.30 and 0.60 and 0.50
same,"Parasitized RBC after 30 d (microscope), individual mice",[1]; 4x 100 mg/kg i.p.,0.0
same,% activity (reduction of parasitaemia),"[1]; 4x 100 mg/kg i.p., day 4",99.8%
same,% of control,"[1]; 4x 100 mg/kg i.p., day 4",0.17%
same,"Parasitized RBC over 100, Average","[1]; 4x 100 mg/kg i.p., day 4",0.10
same,"Parasitized RBC over 100, individual mice M1-M3","[1]; 4x 100 mg/kg i.p., day 4",0.10
same,"Mouse survival in days, Average",[1]; [3],> 30 days
same,"Mouse survival in days, individual mice M1-M3",[1]; [3],30 days
same,% activity (reduction of parasitaemia),[1]; 4x 100 mg/kg p.o.,99.8%
same,% of control,[1]; 4x 100 mg/kg p.o.,0.22%
same,"Parasitized RBC after 30 d (microscope), individual mice",[1]; 4x 100 mg/kg p.o.,0.0
same,"Parasitized RBC over 100, Average",[1]; 4x 100 mg/kg p.o.,0.13
same,"Parasitized RBC over 100, individual mice M1-M3",[1]; 4x 100 mg/kg p.o.,0.00 and 0.30 and 0.10
same,"Mouse survival in days, Average",[1]; [4],27 days
same,"Mouse survival in days, individual mice M1-M3",[1]; [4],30 days (2×) and 20 days
same,cure of mice,[1]; 4 × 100 mg kg−1 i.p.,all mice treated were cured
same,cure of mice,[1]; 4 × 100 mg kg−1 oral,two thirds of the animals were cured
same,acute toxicity symptoms,[2],No acute toxicity symptoms were observed
